Data: patent US20130252818A1, “AMORPHOUS BIOINORGANIC IONIC LIQUID COMPOSITIONS COMPRISING AGRICULTURAL SUBSTANCES” (priority 2012, published 2013)
Counter-ions that a name gives are not always drawn. Like-named read-outs stand apart in the source and are kept apart here.

Legend:
[1] = Thermogravimetric analysis (TGA), decomposition temperature; type: physicochemical
Protocol: Melting points of all purchased materials were determined in a capillary tube using a MeI-Temp apparatus (Barnstead/Thermo Scientific). NMR data sets were collected on a 300 MHz Bruker instrument using sample concentrations of 50 mM. Infrared spectra were measured using an Avatar 360 FT-IR ESP (ThermoElectron-Nicolet, Waltham, Mass.) equipped with a Smart DuraSampllR horizontal attenuated total reflectance (HATR) accessory. Raman spectra were measured using a Thermo-Nicolet 470 FTIR with Nd:YAG laser excitation and HgCdTe detector. Viscosity was measured on 1 mL samples with a Viscolab 3000 viscometer (Cambridge Viscosity, Medford, Mass.). Samples were heated to 90° C., except when otherwise specified, and viscosity was recorded in 2 degree increments between 50 and 90° C. with 8 min equilibration at each temperature. Thermal characterization was carried out using a Q100 DSC and a Q500 TGA (both from TA Instruments, New Castle, Del.). DSC was performed using a 5-10 mg sample in a 40 μL aluminum crucible sealed in the glovebox. A temperature range from −60 to 150° C. was scanned twice, at ramp rates of 5° C./min and 10° C./min. TGA was performed under N2 atmosphere over a temperature range from 25-800° C. with a ramp rate of 20° C. per minute and a sample size of 10 mg.

[2] = Storage under Ar, observed over 6 months for crystalline domains; type: physicochemical; conditions: stored under Ar
[3] = test system: Pseudomonas aeruginosa biofilms; test: Challenge of established biofilms with test compounds, CFU count; type: cell-based; conditions: 72 h biofilm, 6 h challenge
[4] = type: physicochemical; conditions: 3 h incubation at constant 120° C.
[5] = Shelf life estimate by model-free isoconversional kinetic analysis of TGA data; type: physicochemical
Protocol: Zinc(II) chloride (273 mg, 2 mmol) was added to a scintillation vial that had been heated, then cooled under vacuum and charged with dry argon. Phenoxybenzamine hydrochloride (340.3 mg, 1 mmol) was added to the vial with a stir bar and the mixture was degassed with stirring at 60° C. The vial was filled with argon, sealed with a cap, and stirred for 24 h at 80° C. to produce a clear, colorless glass. […] NMR spectra for ^1H and ^13C were obtained in d6-acetone. […] Spectra of phenoxybenzamine-HCl were performed with 0, 0.25, 0.5, 1.0, 1.5, 2.0, and 5.0 molar equivalents of ZnCl2 to observe this effect. Thermal decomposition after a 3 h incubation of the IL at a constant 120° C. was 2.7% of the starting mass. In contrast, the phenoxybenzamine hydrochloride starting material loses 38% of its mass after a similar incubation. The IL was soluble (>1 mM) in acetone, water and phosphate buffered to pH 6.0. The IL was insoluble (<1 mM) in toluene and tetrahydrofuran. […] Model-free isoconversional kinetic analysis (for more detail, see: Doyle, C. D., J. Appl. Polym. Sci. 1962, 6:639-642; and Long, G. T. et al., J. Pharm. Sci. 2002, 91:800-809) of TGA data was used to estimate increases in shelf life due to IL formulation for phenoxybenzamine hydrochloride and phenoxybenzamine-HCl—(ZnCl2)2. The onset of mass loss indicates loss of HCl during cyclization of the 2-chloroethylamine group, the most common decomposition pathway for phenoxybenzamine hydrochloride (for more detail, see: Adams, W. P. et al., Int. J. Pharm. 1985, 25:293-312). Formulation as an ionic liquid improves the shelf life (time to reach 5% decomposition) of solid phenoxybenzamine hydrochloride at 20° C. by 7.7-fold to 15.8 years. […] The manufacturer's shelf life for 10 mg phenoxybenzamine hydrochloride tablets is 2 years, or 730 days, and the calculated value for solid phenoxybenzamine hydrochloride (5% decay at 20° C.) was 750 days (2.05 years), indicating good agreement of the calculation with actual shelf life. The most common decomposition pathway for phenoxybenzamine hydrochloride is loss of hydrochloride during cyclization of the 2-chloroethylamine group (for more detail, see: Adams, W. P. et al., Int. J. Pharm. 1985, 25:293-312) and we expect this is the earliest mass loss observed by TGA. The IL phenoxybenzamine-HCl—(ZnCl2)2 is a stabilized, amorphous formulation with shelf life greater than that of the most common crystalline form.

[6] = Solubility at 1 mM in unbuffered water by eye and UV-Vis after filtration; conditions: for A268 of the filtrate: 0.45 μm syringe filter
Protocol: Solubility of phenoxybenzamine hydrochloride and phenoxybenzamine-HCl—(ZnCl2)2 at 1 mM in unbuffered water (pH 6.5) was evaluated by eye and by UV-Vis spectroscopy after filtration through a 0.45 μm syringe filter.

[7] = Solubility of the IL in solvents
[8] = test system: E. coli; test: Biofilm growth on IL-coated culture plates; type: cell-based; conditions: wells coated with 100 uL IL, 72 h
Protocol: (§1) A second example of clear, colorless antimicrobial films formed by compositions described herein was shown with an assay that involved coating culture plates with IL and observing the biofilm growth on the coated surface. […] Aliquots of 100 μL of either a Staphylococcus aureus culture, an E. coli culture, or a Pseudomonas aeruginosa culture were added to each coated well, the plate was fed with fresh media every 24 h, and cells were counted after 72 h, as described above. The number of cells in the treated wells was below the limit of detection of the assay of 1000 cfu/mL, as compared with normal cell counts for the LB control wells, indicating high antimicrobial efficacy of the IL coating. Because bacteria colonize a surface prior to barnacles and other organisms, proof of antibacterial effects is key to showing anti-biofouling potential in aquatic environments.

[9] = test system: Pseudomonas aeruginosa; test: Biofilm growth on IL-coated culture plates; type: cell-based; conditions: wells coated with 100 uL IL, 72 h
Protocol: as §1

[10] = test system: Staphylococcus aureus; test: Biofilm growth on IL-coated culture plates; type: cell-based; conditions: wells coated with 100 uL IL, 72 h
Protocol: as §1

[11] = TGA under N2, ramp 20° C. per minute
[12] = solid, 20° C., calculated from TGA kinetics
[13] = 1 mM in unbuffered water (pH 6.5)

With `CN(C)CCCN1c2ccccc2CCc2ccccc21.Cl.[Cl][Zn][Cl].[Cl][Zn][Cl]` [Imipramine-HCl—(ZnCl2)2] the “ΔTdec (increase in decomposition temperature relative to HCl starting material)” value [1] was “+21.4 °C”, the “Tdec (decomposition temperature)” value [1, 11] was 267.2 °C and the “Appearance of crystalline domains on storage” value (from here on “Appearance”) [2] was “no crystalline domains appeared”.
For `CN1[C@@H]2CC[C@H]1CC(OC(=O)C(O)c1ccccc1)C2` (stereo partly shown) [Homatropine-HCl—(ZnCl2)2], the “Tdec (decomposition temperature)” value [1] was 274.5 °C, the “ΔTdec (increase in decomposition temperature relative to HCl starting material)” value [1] was “+7.8 °C” and the “Appearance” value [2] was “no crystalline domains appeared”.
With `[Cl-].[Cl-].[Zn+2]` [ZnCl2, Zinc(II) chloride] the “Cell count remaining in biofilm” value ([3]; 1.8 M in LB) was 4×10^5.
For `CC(COc1ccccc1)N(CCCl)Cc1ccccc1` (stereo not shown) [phenoxybenzamine hydrochloride, reference compound], the “Thermal decomposition, % of the starting mass lost” value [4] was 38%, the “Shelf life (5% decay)” value [5, 12] was 750 days and the “Shelf life (time to reach 5% decomposition)” value [5, 12] was 2.05 years. The “A268 of the filtrate” value [6, 13] was 0.30.
For `CNC(=C[N+](=O)[O-])NCCSCc1ccc(CN(C)C)o1.Cl.[Cl][Zn][Cl].[Cl][Zn][Cl]`, the “ΔTdec (increase in decomposition temperature relative to HCl starting material)” value [1] was “+14.1 °C”, the “Appearance” value [2] was “no crystalline domains appeared” and the Solubility ([7]; acetone) was > 1000 µM.
For `CC(C)(C)CC(C)(C)c1ccc(OCCOCC[N+](C)(C)Cc2ccccc2)cc1` [benzethonium chloride], the “Viable dispersed cell count (conservative estimate, some exposures)” value ([3]; 78 mM in LB, precipitate impeded quantification) was 5×10^4 cfu/mL.
For Procainamide-HCl—(ZnCl2)2, the “Appearance” value [2] was “no crystalline domains appeared”.
For `CC(COc1ccccc1)N(CCCl)Cc1ccccc1.Cl.[Cl][Zn][Cl].[Cl][Zn][Cl]` (stereo not shown) [Phenoxybenzamine-HCl—(ZnCl2)2], the “ΔTdec (increase in decomposition temperature relative to HCl starting material)” value [1] was “+45.1 °C”, the “Tdec (decomposition temperature)” value [1, 11] was 259.0 °C and the “Improvement of shelf life over standard formulation in syrup and propylene glycol (4-day refrigerator shelf life)” value [5] was 1500 fold. For the same compound, the “Improvement of shelf life over solid phenoxybenzamine hydrochloride” value ([5]; 20° C., time to 5% decomposition) was 7.7 fold, the “Shelf life (time to reach 5% decomposition)” value [5, 12] was 15.8 years and the “Appearance” value [2] was “no crystalline domains appeared”. The “Solubility evaluated by eye” value ([6]; 1 mM (0.34 mg/mL) in unbuffered water (pH 6.5)) was “completely dissolve”, the “A268 of the filtrate relative to phenoxybenzamine hydrochloride solution” value [6, 13] was 5 × and the “A268 of the filtrate” value [6, 13] was 1.56. For the same compound, the Solubility ([7]; acetone) was > 1000 µM, the Solubility ([7]; phosphate buffered to pH 6.0) was > 1000 µM and the Solubility ([7]; tetrahydrofuran) was < 1000 µM. For the same compound, the Solubility ([7]; toluene) was < 1000 µM and the Solubility ([7]; water) was > 1000 µM.
With `CC(C)(C)CC(C)(C)c1ccc(OCCOCC[N+](C)(C)Cc2ccccc2)cc1` [Benzethonium-Cl—(ZnCl2)2] the “Number of cells in treated wells” value [8] was < 1000 cfu/mL, the “Number of cells in treated wells” value [9] was < 1000 cfu/mL and the “Number of cells in treated wells” value [10] was < 1000 cfu/mL.
In the case of Ethambutol-(HCl)2—(ZnCl2)2, the “Tdec (decomposition temperature)” value [1, 11] is reported as 216.5 °C and the “Appearance” value [2] is reported as “no crystalline domains appeared”.
With `CCCC[N+]1(C)CCCC1.O=S(=O)([N-]S(=O)(=O)C(F)(F)F)C(F)(F)F` [BMP-NTf2, 1-butyl-1-methypyrrolidinium bistriflimide] the “Cell count remaining in biofilm” value ([3]; neat) was 2×10^5.
With `[Cl-].[Na+]` [NaCl] the “Cell count remaining in biofilm” value ([3]; 5 M in LB) was 1×10^6 cells.
